According to ChEMBL document CHEMBL5291721, “A preclinical secondary pharmacology resource illuminates target-adverse drug reaction associations of marketed drugs” (Nat Commun, 2023):

Legend:
[1] = target: T1, Alpha-2A adrenergic receptor (Homo sapiens, UniProt P08913); type: functional, cell-based
T1 sequence (P08913 whole entry): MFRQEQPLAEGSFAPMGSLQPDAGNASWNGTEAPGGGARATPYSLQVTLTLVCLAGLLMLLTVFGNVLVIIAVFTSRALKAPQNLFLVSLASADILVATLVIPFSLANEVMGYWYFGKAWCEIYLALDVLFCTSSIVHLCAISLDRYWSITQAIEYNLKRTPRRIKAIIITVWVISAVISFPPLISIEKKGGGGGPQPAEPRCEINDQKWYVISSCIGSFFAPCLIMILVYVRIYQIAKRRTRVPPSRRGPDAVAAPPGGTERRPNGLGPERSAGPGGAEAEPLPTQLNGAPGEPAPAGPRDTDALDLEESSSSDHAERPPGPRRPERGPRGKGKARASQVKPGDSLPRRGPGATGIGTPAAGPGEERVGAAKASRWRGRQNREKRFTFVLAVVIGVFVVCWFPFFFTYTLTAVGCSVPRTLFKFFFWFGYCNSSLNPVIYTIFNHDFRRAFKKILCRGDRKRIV

[2] = target: T1, Alpha-2A adrenergic receptor; type: functional, cell-based; remark: listed apart in the source
[3] = target: Neuronal acetylcholine receptor subunit alpha-4 (Homo sapiens, UniProt P43681)
Chain of Neuronal acetylcholine receptor subunit alpha-4 (P43681 whole entry): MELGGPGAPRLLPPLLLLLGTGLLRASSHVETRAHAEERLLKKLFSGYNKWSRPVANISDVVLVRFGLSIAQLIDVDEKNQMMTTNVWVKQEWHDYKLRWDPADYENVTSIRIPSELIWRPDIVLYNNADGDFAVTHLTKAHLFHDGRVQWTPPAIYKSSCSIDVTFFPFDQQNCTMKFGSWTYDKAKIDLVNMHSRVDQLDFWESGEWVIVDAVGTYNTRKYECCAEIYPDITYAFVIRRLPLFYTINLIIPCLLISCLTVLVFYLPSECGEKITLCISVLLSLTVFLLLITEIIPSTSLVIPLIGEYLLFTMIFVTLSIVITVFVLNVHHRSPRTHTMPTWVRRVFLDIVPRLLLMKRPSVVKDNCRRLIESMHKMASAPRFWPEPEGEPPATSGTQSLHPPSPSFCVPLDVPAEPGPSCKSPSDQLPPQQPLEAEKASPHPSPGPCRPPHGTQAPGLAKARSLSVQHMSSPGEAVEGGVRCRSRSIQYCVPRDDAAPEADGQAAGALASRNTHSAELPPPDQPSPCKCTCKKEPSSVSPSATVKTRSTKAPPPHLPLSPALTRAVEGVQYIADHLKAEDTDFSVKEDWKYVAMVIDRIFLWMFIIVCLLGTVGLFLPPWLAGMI

[4] = target: T2, Corticotropin-releasing factor receptor 2 (Homo sapiens, UniProt Q13324)
T2 sequence (Q13324 whole entry): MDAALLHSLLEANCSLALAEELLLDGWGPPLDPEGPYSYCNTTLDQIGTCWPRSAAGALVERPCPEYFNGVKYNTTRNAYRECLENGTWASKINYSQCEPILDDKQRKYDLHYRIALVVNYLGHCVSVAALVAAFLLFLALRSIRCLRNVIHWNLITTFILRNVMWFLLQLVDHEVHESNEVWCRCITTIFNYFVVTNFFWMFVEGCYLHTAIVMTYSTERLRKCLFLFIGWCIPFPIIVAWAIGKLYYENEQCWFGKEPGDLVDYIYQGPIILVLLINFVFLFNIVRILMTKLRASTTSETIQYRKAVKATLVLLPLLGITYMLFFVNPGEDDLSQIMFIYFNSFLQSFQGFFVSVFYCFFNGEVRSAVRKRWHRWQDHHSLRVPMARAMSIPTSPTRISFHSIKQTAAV

Melanocortin receptor 4 = Melanocortin receptor 4 (Homo sapiens, UniProt P32245)
Chain of Melanocortin receptor 4 (P32245 whole entry): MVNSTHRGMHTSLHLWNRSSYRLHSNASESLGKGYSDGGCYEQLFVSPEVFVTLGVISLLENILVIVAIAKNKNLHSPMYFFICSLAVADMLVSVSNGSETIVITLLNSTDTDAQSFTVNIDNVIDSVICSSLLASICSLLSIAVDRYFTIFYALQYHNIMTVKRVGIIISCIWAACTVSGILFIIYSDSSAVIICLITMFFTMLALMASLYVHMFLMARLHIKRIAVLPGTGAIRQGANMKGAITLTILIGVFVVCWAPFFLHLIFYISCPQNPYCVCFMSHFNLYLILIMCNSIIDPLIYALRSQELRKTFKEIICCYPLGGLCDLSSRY

Glucocorticoid receptor = target: T3, Glucocorticoid receptor (Homo sapiens, UniProt P04150)
T3 sequence (P04150 whole entry): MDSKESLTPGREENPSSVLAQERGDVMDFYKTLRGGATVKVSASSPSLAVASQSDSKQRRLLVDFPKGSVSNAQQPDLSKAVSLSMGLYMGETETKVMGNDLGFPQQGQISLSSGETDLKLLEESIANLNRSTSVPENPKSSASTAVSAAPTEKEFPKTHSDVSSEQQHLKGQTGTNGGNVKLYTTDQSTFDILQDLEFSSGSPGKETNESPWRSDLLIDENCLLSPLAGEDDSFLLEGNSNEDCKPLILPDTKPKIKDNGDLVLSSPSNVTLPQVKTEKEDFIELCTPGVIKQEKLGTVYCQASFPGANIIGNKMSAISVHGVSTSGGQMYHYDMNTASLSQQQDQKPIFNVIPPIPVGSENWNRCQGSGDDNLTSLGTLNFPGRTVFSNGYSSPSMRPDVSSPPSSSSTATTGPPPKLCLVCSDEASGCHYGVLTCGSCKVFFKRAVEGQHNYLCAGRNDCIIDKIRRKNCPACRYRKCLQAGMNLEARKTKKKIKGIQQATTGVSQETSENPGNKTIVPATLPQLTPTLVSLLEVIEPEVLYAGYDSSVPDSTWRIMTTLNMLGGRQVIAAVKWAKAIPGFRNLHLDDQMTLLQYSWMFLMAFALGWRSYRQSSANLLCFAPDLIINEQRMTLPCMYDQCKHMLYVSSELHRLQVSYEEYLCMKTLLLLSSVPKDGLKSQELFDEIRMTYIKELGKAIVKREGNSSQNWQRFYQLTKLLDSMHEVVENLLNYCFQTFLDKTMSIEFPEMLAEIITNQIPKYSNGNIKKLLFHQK

[5] = target: cGMP-inhibited 3',5'-cyclic phosphodiesterase 3A (Homo sapiens, UniProt Q14432); type: functional
Chain of cGMP-inhibited 3',5'-cyclic phosphodiesterase 3A (Q14432 whole entry): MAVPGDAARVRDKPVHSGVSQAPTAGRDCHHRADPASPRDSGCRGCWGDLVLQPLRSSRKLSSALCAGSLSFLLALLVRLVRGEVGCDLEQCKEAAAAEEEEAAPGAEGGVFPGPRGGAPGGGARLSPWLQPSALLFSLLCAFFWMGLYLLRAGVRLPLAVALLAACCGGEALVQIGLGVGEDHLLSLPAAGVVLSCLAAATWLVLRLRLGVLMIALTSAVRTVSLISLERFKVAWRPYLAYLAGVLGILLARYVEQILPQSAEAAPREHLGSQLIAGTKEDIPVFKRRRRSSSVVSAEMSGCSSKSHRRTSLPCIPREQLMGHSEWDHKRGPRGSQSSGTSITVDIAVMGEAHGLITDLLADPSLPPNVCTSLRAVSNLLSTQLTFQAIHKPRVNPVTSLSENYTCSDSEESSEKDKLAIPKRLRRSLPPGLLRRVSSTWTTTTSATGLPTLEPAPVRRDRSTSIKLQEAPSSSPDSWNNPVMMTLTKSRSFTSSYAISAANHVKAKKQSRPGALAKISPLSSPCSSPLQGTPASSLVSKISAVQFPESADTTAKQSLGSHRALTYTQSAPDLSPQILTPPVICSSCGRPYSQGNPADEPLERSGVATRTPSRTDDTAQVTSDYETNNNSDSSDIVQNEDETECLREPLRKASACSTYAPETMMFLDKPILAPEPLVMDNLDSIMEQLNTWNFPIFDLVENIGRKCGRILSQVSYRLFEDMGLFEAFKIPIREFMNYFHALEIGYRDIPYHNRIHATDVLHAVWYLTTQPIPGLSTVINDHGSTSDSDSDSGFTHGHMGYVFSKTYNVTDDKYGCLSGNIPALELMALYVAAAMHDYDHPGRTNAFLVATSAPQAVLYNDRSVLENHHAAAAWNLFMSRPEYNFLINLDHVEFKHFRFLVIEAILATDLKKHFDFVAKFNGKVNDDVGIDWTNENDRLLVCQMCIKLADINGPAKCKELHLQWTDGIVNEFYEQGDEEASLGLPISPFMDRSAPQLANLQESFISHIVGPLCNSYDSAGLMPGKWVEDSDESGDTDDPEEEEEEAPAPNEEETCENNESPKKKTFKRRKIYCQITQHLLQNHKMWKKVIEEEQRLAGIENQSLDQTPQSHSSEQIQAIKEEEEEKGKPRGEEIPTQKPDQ

[6] = target: T4, Muscarinic acetylcholine receptor M2 (Homo sapiens, UniProt P08172)
T4 sequence (P08172 whole entry): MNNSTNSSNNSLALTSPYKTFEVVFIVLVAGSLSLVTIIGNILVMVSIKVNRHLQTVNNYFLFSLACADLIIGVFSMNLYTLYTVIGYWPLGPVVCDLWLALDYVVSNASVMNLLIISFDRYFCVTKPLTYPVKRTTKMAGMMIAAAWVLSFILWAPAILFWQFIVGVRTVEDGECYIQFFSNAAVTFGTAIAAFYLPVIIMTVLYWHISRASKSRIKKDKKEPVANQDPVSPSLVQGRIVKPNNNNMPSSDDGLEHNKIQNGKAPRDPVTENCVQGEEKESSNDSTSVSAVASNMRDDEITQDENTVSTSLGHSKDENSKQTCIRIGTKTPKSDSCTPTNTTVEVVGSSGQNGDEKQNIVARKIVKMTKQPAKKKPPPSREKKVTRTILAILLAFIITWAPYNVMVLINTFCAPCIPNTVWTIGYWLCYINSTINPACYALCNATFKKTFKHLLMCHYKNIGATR

Adenosine receptor A3 = target: T5, Adenosine receptor A3 (Homo sapiens, UniProt P0DMS8)
T5 sequence (P0DMS8 whole entry): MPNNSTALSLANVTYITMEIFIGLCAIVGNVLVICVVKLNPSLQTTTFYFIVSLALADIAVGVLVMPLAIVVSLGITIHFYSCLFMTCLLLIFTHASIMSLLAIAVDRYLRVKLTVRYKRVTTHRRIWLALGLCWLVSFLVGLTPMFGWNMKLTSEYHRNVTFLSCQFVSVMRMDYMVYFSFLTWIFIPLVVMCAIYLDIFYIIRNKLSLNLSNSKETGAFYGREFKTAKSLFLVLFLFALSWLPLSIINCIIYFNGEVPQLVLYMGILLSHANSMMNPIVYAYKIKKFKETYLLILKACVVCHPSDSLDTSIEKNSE

[7] = target: Gamma-aminobutyric acid receptor subunit alpha-1/alpha-2/beta-2/gamma-2 (Homo sapiens, UniProt P14867+P18507+P47869+P47870); type: protein-complex assay
Chain of Gamma-aminobutyric acid receptor subunit alpha-1/alpha-2/beta-2/gamma-2 (P14867 whole entry): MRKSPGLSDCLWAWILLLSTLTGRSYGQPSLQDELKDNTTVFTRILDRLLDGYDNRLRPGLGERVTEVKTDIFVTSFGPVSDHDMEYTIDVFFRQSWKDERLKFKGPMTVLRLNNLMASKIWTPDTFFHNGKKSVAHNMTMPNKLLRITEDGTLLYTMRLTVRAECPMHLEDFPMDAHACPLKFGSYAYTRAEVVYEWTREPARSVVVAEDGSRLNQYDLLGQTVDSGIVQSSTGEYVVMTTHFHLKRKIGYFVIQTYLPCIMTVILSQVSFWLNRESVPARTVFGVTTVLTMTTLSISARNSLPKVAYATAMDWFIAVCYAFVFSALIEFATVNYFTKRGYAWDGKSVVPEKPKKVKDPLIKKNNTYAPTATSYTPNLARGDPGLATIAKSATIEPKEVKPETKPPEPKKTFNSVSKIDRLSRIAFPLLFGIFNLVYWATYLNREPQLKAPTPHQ
Chain of Gamma-aminobutyric acid receptor subunit alpha-1/alpha-2/beta-2/gamma-2 (P47870 whole entry): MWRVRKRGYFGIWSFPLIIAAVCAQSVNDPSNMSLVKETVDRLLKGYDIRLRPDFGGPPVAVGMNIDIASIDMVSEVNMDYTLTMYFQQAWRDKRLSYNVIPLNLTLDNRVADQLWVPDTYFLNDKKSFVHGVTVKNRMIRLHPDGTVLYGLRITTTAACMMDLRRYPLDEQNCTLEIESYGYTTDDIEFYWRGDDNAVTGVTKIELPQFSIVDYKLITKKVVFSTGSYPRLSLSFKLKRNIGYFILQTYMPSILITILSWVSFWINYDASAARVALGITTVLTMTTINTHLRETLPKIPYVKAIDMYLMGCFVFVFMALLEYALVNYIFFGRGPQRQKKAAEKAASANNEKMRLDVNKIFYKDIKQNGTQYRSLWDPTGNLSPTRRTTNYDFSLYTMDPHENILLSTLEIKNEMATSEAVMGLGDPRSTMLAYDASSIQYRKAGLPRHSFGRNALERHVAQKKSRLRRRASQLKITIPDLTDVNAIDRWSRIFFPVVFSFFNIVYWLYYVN
Chain of Gamma-aminobutyric acid receptor subunit alpha-1/alpha-2/beta-2/gamma-2 (P18507 whole entry): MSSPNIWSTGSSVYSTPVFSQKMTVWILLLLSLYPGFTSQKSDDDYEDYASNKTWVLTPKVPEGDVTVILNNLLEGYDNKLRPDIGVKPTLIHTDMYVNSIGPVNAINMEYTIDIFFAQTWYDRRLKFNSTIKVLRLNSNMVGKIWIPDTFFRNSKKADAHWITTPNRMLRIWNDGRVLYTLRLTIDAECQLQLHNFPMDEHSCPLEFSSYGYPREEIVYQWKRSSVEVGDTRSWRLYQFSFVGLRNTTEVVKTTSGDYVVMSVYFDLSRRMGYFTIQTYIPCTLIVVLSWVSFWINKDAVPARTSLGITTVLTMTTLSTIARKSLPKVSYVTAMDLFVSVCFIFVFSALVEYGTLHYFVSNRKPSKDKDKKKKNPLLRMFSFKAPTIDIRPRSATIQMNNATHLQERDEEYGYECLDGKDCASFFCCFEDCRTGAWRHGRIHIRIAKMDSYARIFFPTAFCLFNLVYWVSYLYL
Chain of Gamma-aminobutyric acid receptor subunit alpha-1/alpha-2/beta-2/gamma-2 (P47869 whole entry): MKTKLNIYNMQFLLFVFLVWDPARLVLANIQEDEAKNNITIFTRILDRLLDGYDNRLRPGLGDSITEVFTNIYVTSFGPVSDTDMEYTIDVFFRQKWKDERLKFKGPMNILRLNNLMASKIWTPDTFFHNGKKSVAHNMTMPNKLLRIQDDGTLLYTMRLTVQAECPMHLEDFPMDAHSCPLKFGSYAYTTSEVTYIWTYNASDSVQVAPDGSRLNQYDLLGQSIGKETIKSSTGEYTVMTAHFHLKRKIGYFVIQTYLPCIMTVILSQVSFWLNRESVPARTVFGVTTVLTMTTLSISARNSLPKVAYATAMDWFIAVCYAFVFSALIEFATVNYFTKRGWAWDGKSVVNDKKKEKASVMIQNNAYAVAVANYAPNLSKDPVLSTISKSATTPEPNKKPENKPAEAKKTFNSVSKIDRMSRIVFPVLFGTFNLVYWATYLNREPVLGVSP
Also: assay procedure not described here.

Row | SMILES | AC50 [1] [µM] | AC50 [2] [µM] | AC50 [3] [µM] | AC50 [4] [µM] | AC50 (Melanocortin receptor 4) [µM] | AC50 (Glucocorticoid receptor) [µM] | AC50 [5] [µM] | AC50 [6] [µM] | AC50 (Adenosine receptor A3) [µM] | AC50 [7] [µM]
1 | CCOc1nc2cccc(C(=O)O)c2n1Cc1ccc(-c2ccccc2-c2nnn[nH]2)cc1 | > 30 | > 30 | > 10 | > 30 | > 10 | > 30 | 13 | > 10 |  | 
2 | CCCc1nc2c(C)cc(-c3nc4ccccc4n3C)cc2n1Cc1ccc(-c2ccccc2C(=O)O)cc1 | > 30 | 3.96 | > 30 | > 30 | > 30 | > 30 | > 30 | > 10 | 17.4 | 
3 | Cc1nc(Nc2ncc(C(=O)Nc3c(C)cccc3Cl)s2)cc(N2CCN(CCO)CC2)n1 [DASATINIB] | > 30 | > 10 | > 30 |  | > 30 |  | > 30 | > 10 |  | 
4 | O=C(O)Cc1ccccc1Nc1c(Cl)cccc1Cl [DICLOFENAC] | > 10 | > 10 | > 10 | > 30 | > 30 |  | > 30 | > 10 | > 3 | > 3
5 | O=C(O)Cc1ccccc1Oc1ccc(Cl)cc1Cl [FENCLOFENAC] | > 10 | > 10 | > 10 | > 30 | > 30 | > 30 | > 30 | > 10 | > 30 | 
6 | Cc1ccc(C)c(OCCCC(C)(C)C(=O)O)c1 [GEMFIBROZIL] | > 10 | > 10 | > 10 | > 30 | > 30 |  | > 30 | > 10 | > 30 | 
7 | CC[C@H](C)C(=O)O[C@H]1C[C@@H](C)C=C2C=C[C@H](C)[C@H](CC[C@@H]3C[C@@H](O)CC(=O)O3)[C@H]21 [LOVASTATIN] | > 10 | > 10 | > 10 | > 30 | > 30 | > 30 | > 30 | > 10 |  | 
8 | CC[C@@H](CO)NC(=O)[C@@H]1C=C2c3cccc4c3c(cn4C)C[C@H]2N(C)C1 [METHYSERGIDE] | > 10 | 11 | > 10 | > 30 | > 30 |  | > 30 | > 10 |  | 
9 | CC(CN1c2ccccc2Sc2ccccc21)N(C)C (configuration not stated) [PROMETHAZINE] |  |  | > 10 | > 30 | 25 |  | > 30 | 0.161 |  | 
10 | CN(CCOc1ccc(CC2SC(=O)NC2=O)cc1)c1ccccn1 (configuration not stated) [ROSIGLITAZONE] | > 30 | 8.6 | > 30 | > 30 | 23.7 |  | > 30 | > 10 |  | 
11 | CC(C)[C@H](N)C(=O)OCCOCn1cnc2c(=O)[nH]c(N)nc21 [VALACYCLOVIR] | > 10 | > 10 | > 10 | > 30 | > 30 | > 30 | > 30 | > 10 |  | 
12 | O=C1Cc2cc(CCN3CCN(c4nsc5ccccc45)CC3)c(Cl)cc2N1 [ZIPRASIDONE] |  |  | > 10 | > 30 | > 30 | > 30 | > 30 | > 10 | 8.66 | > 30
